Data published in patent US9187518B2, “Antiangiogenic brassinosteroid compounds” (CONSEJO NACIONAL DE INVESTIGACIONES CIENTIFICAS Y TECNICAS …, priority 2011, dated 2015).

Columns and labels:
[1] = tested on: HCLE cells infected with HSV-1; assay: Microarray gene expression in HCLE cells infected with HSV-1; type: cell-based, human; details: HCLE infected with HSV-1 (m.o.i.=1), 40 μM, 6 h, vs infected untreated
Procedure: HSV-1 infected cells and LPS stimulated cells were transcriptionally analyzed by using the whole human genome microarray and whole mouse genome microarray (Agilent Technologies, Santa Clara, Calif.), corresponding to 41,000 human or mice genes and transcripts.
RNA was extracted with chloroform/isopropanol and purified from Trizol.
cDNA synthesis, amplification and labeling of cRNA was performed, following the protocol of two colors of Agilent. Cyanine: 3-CTP and 5-CTP labeled cRNA was prepared from purified RNA (Two-Color Microarray-Based Gene Expression Analysis—Quick Amp Labeling, Agilent). Labeled cRNA was purified, quantified and the efficiency of labeling determined.
After that, we proceeded with the hybridization, washing, assembling of the chips and scanning. […] The fluorescence intensity data obtained for each chip were analyzed using GeneSpring XG11 and Multi Experiment Viewer (MeV) programs. […]
We used the commercial software Agilent Feature Extraction for quality control of the scan. The software converts the scanned images produced in quantitative data for further analysis. […] On the one hand, it performs an analysis of the image to locate the grid on the chip and in it, the spots for each gene, and on the other hand, it makes an analysis of data, to define and measure information (fluorescence intensity) of each spot, for the analysis of gene expression. […]

human corneal cells = assay: Cytotoxicity assay, corneal cells; type: cell-based
Procedure: (§1) Cell viability was determined as previously reported. The absorbance of each well was measured on a Eurogenetics MPR-A 4i microplate reader using a test wavelength of 570 nm and a reference wavelength of 630 nm. Results were expressed as a percentage of absorbance of treated cells with respect to untreated ones. The CC50 was defined as the concentration of compound that caused 50% reduction in cell viability.

human conjunctival cells = assay: Cytotoxicity assay, conjunctival cells; type: cell-based
Procedure: as §1

IL-8 = IL-8 secretion in epithelial cells (ELISA); type: cell-based, human
HSV-1 = assay: Murine model of HSV-1 corneal infection (herpetic stromal keratitis, HSK); type: in vivo, mice
HUVECs = assay: Cell invasion assay (transwell, IL-6 stimulated); type: cell-based; details: Homo sapiens, HUVEC, 100 ng/ml IL-6, 24 h, read-out: inhibition of HUVECs invasion through the filter
Procedure: HUVECs' invasion was evaluated using 24-well transwell cell culture chambers with 8 μm pore polycarbonate filter inserts. Cultured HUVECs were trypsinized and suspended in Medium 200 supplemented with LSGS at a concentration of 8×10^5 cells/ml. A total of 4×10^4 of cell suspension was applied to insert filters. We used 100 ng/ml of IL-6 to stimulate cell migration through the inserts. For that, we dispensed 600 μl of medium alone or with the stimulus in the lower chamber, which was then incubated for 24 h at 37° C. to allow cell migration. The insert was removed and migrated cells on the wells were fixed and stained with crystal violet. The wells were examined under a microscope. Migration was quantified by measuring the total stained cells in every well.

NF-κB p65 subunit = assay: NF-κB p65 nuclear translocation in HSV-1 infected IOBA-NHC and HCLE cells (IFI); type: cell-based, human; details: 40 μM
Procedure: IOBA-NHC and HCLE cells monolayers grown on coverslips in 24-well plates were infected with 0.2 ml of HSV-1 KOS (m.o.i.=1) and incubated 1 h at 37° C. Then, the inoculums were removed and cells were coated with a DMEM/F12 without SFB, for 24 h at 37° C.
After incubation, cells were fixed in methanol at −20° C. for 10 min, and processed for indirect immunofluorescence (IFI) with antibodies directed against the glycoprotein D (gD) of HSV-1 and/or the p65 subunit of NF-κB. […]
The images obtained with a 40× magnification were imported into NIH Image J 1.34s program (designed by Wayne Rasband, NIMH, Bethesda). […] We analyzed the total and nuclear fluorescence of the individual cells and a mean fluorescence density was obtained for each. To compare the distribution of fluorescence within the cell, the results were analyzed in a spreadsheet (Excel®). The total fluorescence intensity or nuclear density was calculated as the total or nuclear average per total or nuclear area, respectively. Then, we calculated the percentage of nuclear intensity or the percentage of nuclear intensity with respect to the total intensity for each cell. Non-stimulated cells were processed to establish a baseline of nuclear fluorescence (cut-off value). […]

Structure (SMILES): CC[C@@H](C(C)C)[C@H](O)[C@@H](O)[C@@H](C)[C@H]1CC[C@H]2[C@@H]3CCC4=CC(=O)CC[C@]4(C)[C@H]3CC[C@]12C [Compound 1, (22S,23S)-22,23-dihydroxystigmast-4-en-3-one]
- expression of IL-1α, IL-8 and CXCL-2 [1]: overexpression
- expression of macrophage colony stimulating factor (CSF-2) [1]: overexpression
- cytotoxicity (human corneal cells): no cytotoxicity
- cytotoxicity (human conjunctival cells): no cytotoxicity
- IL-8 secretion (IL-8; HSV-1 infected HCLE cells, 40 μM, 24 h (untreated infected 142.9±0.5)): 163.6 ± 0.4 pg/mL
- IL-8 secretion (IL-8; HSV-1 infected IOBA-NHC cells, 40 μM, 24 h (untreated infected 252±7.8)): 471.8 ± 30 pg/mL
- IL-8 secretion (IL-8; uninfected HCLE cells, compound alone, vs basal level): considerably increased
- IL-8 secretion (IL-8; uninfected IOBA-NHC cells, compound alone, vs basal level): considerably increased
- antiviral activity in vivo (HSV-1; HSV-1 infected mice): no antiviral activity in vivo
- signs of keratitis (HSV-1; administered during the first 3 days after HSV-1 infection): significantly restrained
- incidence and severity of HSK (HSV-1; murine model of HSV-1 corneal infection, in presence of replicative virus and after immune response triggered): significantly decreases
- incidence and severity of neovascularization in infected corneas (HSV-1; treated from day 1 p.i. onwards, and at onset of disease, 6 days p.i. (data not shown)): decreased
- inhibition at 10 µM (HUVECs; 10 μM): 18.4%
- inhibition at 20 µM (HUVECs; 20 μM): 26.1%
- inhibition at 40 µM (HUVECs; 40 μM): 67.5%
- percentage of cells exhibiting NF-κB translocation to the nucleus (NF-κB p65 subunit; HCLE cells infected with HSV-1 (m.o.i.=1)): 5.7%
- percentage of cells exhibiting NF-κB translocation to the nucleus (NF-κB p65 subunit; IOBA-NHC cells infected with HSV-1 (m.o.i.=1)): 22.2±1.2%
